Assay results taken from patent publication US10738028B2, “Spiro three-membered ring, spiro five-membered ring peptide deformylase inhibitor and use thereof in antibacteria and anti-tumor” (priority 2016, dated 2020).

Assays:
Type in all cases: cell-based
[1] = system: BEL-7402 liver cancer cell line; assay: CCK-8 proliferation inhibition; details: concentration of 30 μM
Outline: (§1)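 Plating at 2000 cells/well, then incubation overnight at 37° C. Next, a range of compound concentrations for 72 hours (control 1‰ DMSO). Finally, medium decanted and CCK-8 diluted 1:10 added.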

[2] = system: A549 lung cancer cell line; assay: CCK-8 proliferation inhibition; details: concentration of 30 μM
Outline: as §1

[3] = system: MGC-803 gastric cancer cell line; assay: CCK-8 proliferation inhibition; details: Homo sapiens, MGC-803, 72 h, concentration of 30 μM
Outline: as §1

[4] = system: Enterococcus faecium (EFM); assay: MIC, two-fold agar dilution (CLSI), clinical isolates
Outline: (§2)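 MIC values come from two-fold agar dilution run per CLSI antimicrobial susceptibility testing procedure.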

[5] = system: Enterococcus faecalis (EFA); assay: as above
Outline: as §2

[6] = system: Streptococcus pneoumoniae (SPN); assay: as above
Outline: as §2

[7] = system: Moraxella catarrhalis (BCA); assay: as above
Outline: as §2

[8] = system: methicillin-sensitive Staphylococcus epidermidis (MSSE); assay: as above
Outline: as §2

[9] = system: Escherichia coli (including ESBLs, non-ESBLs); assay: as above
Outline: as §2

[10] = system: methicillin-resistant Staphylococcus epidermidis (MRSE); assay: as above
Outline: as §2

[11] = system: methicillin-sensitive Staphylococcus aureus (MSSA); assay: as above
Outline: as §2

[12] = system: methicillin-resistant Staphylococcus aureus (MRSA); assay: as above
Outline: as §2

[13] = system: HCT-116 colorectal cancer cell line; assay: CCK-8 proliferation inhibition; details: concentration of 30 μM, 72 hours, CCK-8
Outline: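 Growth inhibition is read by CCK-8 (1:10 dilution) after 72 h of compound exposure. HCT-116 cells grow in McCoy's 5A containing 10% newborn bovine serum at 2000 cells/well, with 1‰ DMSO as vehicle control.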

For `CCCC[C@H](CC(=O)NO)C(=O)N1CC2(CC2)C[C@H]1C(=O)Nc1nc(C(F)(F)F)cs1` [Example 57], the inhibition at 30 µM ([1]; Homo sapiens, Bel-7402, 72 h) was > 50%, the “Inhibition of proliferation, Liver cancer BEL-7402” value ([1]; 72 hours, 30 µM) was 57% and the inhibition at 30 µM ([2]; Homo sapiens, A549, 72 h) was > 50%. For the same compound, the “Inhibition of proliferation, Lung cancer A549” value ([2]; 72 hours, 30 µM) was 52%, the inhibition at 30 µM [3] was 34% and the Anti-bacterial activity (MIC), strain EFM 15-1 ([4]; clinical isolate EFM 15-1) was 1 µg/mL. For the same compound, the Anti-bacterial activity (MIC), strain EFM 15-2 ([4]; clinical isolate EFM 15-2) was 2 µg/mL, the Anti-bacterial activity (MIC), strain EFM 15-3 ([4]; clinical isolate EFM 15-3) was 0.25 µg/mL and the Anti-bacterial activity (MIC), strain EFM 15-4 ([4]; clinical isolate EFM 15-4) was 1 µg/mL. For the same compound, the Anti-bacterial activity (MIC), strain EFM 15-5 ([4]; clinical isolate EFM 15-5) was 0.5 µg/mL, the Anti-bacterial activity (MIC), strain EFM 15-6 ([4]; clinical isolate EFM 15-6) was 4 µg/mL and the Anti-bacterial activity (MIC), strain EFA 15-1 ([5]; clinical isolate EFA 15-1) was 8 µg/mL. It also gave an Anti-bacterial activity (MIC), strain EFA 15-2 ([5]; clinical isolate EFA 15-2) of 8 µg/mL, an Anti-bacterial activity (MIC), strain EFA 15-3 ([5]; clinical isolate EFA 15-3) of 8 µg/mL and an Anti-bacterial activity (MIC), strain EFA 15-4 ([5]; clinical isolate EFA 15-4) of 8 µg/mL. For the same compound, the Anti-bacterial activity (MIC), strain EFA 15-5 ([5]; clinical isolate EFA 15-5) was 8 µg/mL, the Anti-bacterial activity (MIC), strain EFA 15-6 ([5]; clinical isolate EFA 15-6) was 8 µg/mL and the Anti-bacterial activity (MIC), strain EFA 15-9 ([5]; clinical isolate EFA 15-9) was 8 µg/mL. For the same compound, the Anti-bacterial activity (MIC), strain SPN 16-2 ([6]; clinical isolate SPN 16-2) was 2 µg/mL, the Anti-bacterial activity (MIC), strain SPN 16-4 ([6]; clinical isolate SPN 16-4) was 0.25 µg/mL and the Anti-bacterial activity (MIC), strain BCA 14-1 ([7]; clinical isolate BCA 14-1) was 0.5 µg/mL. For the same compound, the Anti-bacterial activity (MIC), strain BCA 14-4 ([7]; clinical isolate BCA 14-4) was 0.5 µg/mL, the Anti-bacterial activity (MIC), strain BCA 14-5 ([7]; clinical isolate BCA 14-5) was 0.5 µg/mL and the Anti-bacterial activity (MIC), strain BCA 14-6 ([7]; clinical isolate BCA 14-6) was 1 µg/mL. It also gave an Anti-bacterial activity (MIC), strain BCA 14-7 ([7]; clinical isolate BCA 14-7) of 0.25 µg/mL, an Anti-bacterial activity (MIC), strain BCA 14-8 ([7]; clinical isolate BCA 14-8) of 0.25 µg/mL and an Anti-bacterial activity (MIC), strain BCA 14-10 ([7]; clinical isolate BCA 14-10) of 0.25 µg/mL. For the same compound, the Anti-bacterial activity (MIC), strain MSSE 15-3 ([8]; clinical isolate MSSE 15-3) was 0.25 µg/mL, the Anti-bacterial activity (MIC), strain MSSE 15-4 ([8]; clinical isolate MSSE 15-4) was 0.125 µg/mL and the Anti-bacterial activity (MIC), strain MSSE 15-5 ([8]; clinical isolate MSSE 15-5) was 0.125 µg/mL. For the same compound, the Anti-bacterial activity (MIC), strain MSSE 15-6 ([8]; clinical isolate MSSE 15-6) was 0.06 µg/mL, the Anti-bacterial activity (MIC), strain ECO+ 15-1 ([9]; clinical isolate ECO+ 15-1) was 32 µg/mL and the Anti-bacterial activity (MIC), strain ECO+ 15-2 ([9]; clinical isolate ECO+ 15-2) was > 32 µg/mL. For the same compound, the Anti-bacterial activity (MIC), strain ECO+ 15-3 ([9]; clinical isolate ECO+ 15-3) was > 32 µg/mL, the Anti-bacterial activity (MIC), strain ECO+ 15-4 ([9]; clinical isolate ECO+ 15-4) was > 32 µg/mL and the Anti-bacterial activity (MIC), strain ECO− 15-1 ([9]; clinical isolate ECO− 15-1) was > 32 µg/mL. For the same compound, the Anti-bacterial activity (MIC), strain ECO− 15-2 ([9]; clinical isolate ECO− 15-2) was > 32 µg/mL, the Anti-bacterial activity (MIC), strain ECO− 15-3 ([9]; clinical isolate ECO− 15-3) was > 32 µg/mL and the Anti-bacterial activity (MIC), strain ECO− 15-4 ([9]; clinical isolate ECO− 15-4) was > 32 µg/mL. The Anti-bacterial activity (MIC), strain MRSE 15-1 ([10]; clinical isolate MRSE 15-1) was 0.125 µg/mL, the Anti-bacterial activity (MIC), strain MRSE 15-2 ([10]; clinical isolate MRSE 15-2) was 0.125 µg/mL and the Anti-bacterial activity (MIC), strain MRSE 15-3 ([10]; clinical isolate MRSE 15-3) was 0.125 µg/mL. For the same compound, the Anti-bacterial activity (MIC), strain MRSE 15-7 ([10]; clinical isolate MRSE 15-7) was 0.25 µg/mL, the Anti-bacterial activity (MIC), strain MSSA 15-3 ([11]; clinical isolate MSSA 15-3) was 0.5 µg/mL and the Anti-bacterial activity (MIC), strain MSSA 15-4 ([11]; clinical isolate MSSA 15-4) was 0.125 µg/mL. It also gave an Anti-bacterial activity (MIC), strain MSSA 15-5 ([11]; clinical isolate MSSA 15-5) of 0.125 µg/mL, an Anti-bacterial activity (MIC), strain MSSA 15-6 ([11]; clinical isolate MSSA 15-6) of 0.125 µg/mL and an Anti-bacterial activity (MIC), strain MRSA 15-1 ([12]; clinical isolate MRSA 15-1) of 0.5 µg/mL. The Anti-bacterial activity (MIC), strain MRSA 15-2 ([12]; clinical isolate MRSA 15-2) was 0.5 µg/mL, the Anti-bacterial activity (MIC), strain MRSA 15-3 ([12]; clinical isolate MRSA 15-3) was 0.5 µg/mL and the Anti-bacterial activity (MIC), strain MRSA 15-4 ([12]; clinical isolate MRSA 15-4) was 0.5 µg/mL. The inhibition at 30 µM ([13]; Homo sapiens, HCT-116, 72 h, read-out: HCT116 inhibition rate/%) was > 50% and the HCT116 inhibition rate/% ([13]; 30 µM) was 52%.
